Measured values as given in PubChem BioAssay AID1918932 (Molecular Pharmacology Branch, DTP, NCI, 2023).

Test system: 171881-019-R-J1-PDC complex spheroid viability
Experiment: Anticancer human tumor 171881-019-R-J1-PDC patient-derived invasive breast carcinoma cell line growth inhibition
Settings: for IC50: curve of first compound; for viability, T/C: stronger effect = lower value
Source text: Multicellular complex tumor spheroid response to LSD1 Inhibitor Iadademstat in combination with a variety of drugs and investigational agents in selected tumor cell lines
The current study was undertaken to assess response to LSD1 inhibitors in combination with standard-of-care drugs and investigational agents in solid tumor complex spheroid models as well as in the K-562 leukemia. Complex spheroids include a stromal component modeled by human endothelial cells (HUVEC) and fibroblasts modeled by human mesenchymal stem cells (MSCs). The concentration ranges selected for each drug and investigational agent were based upon clinically achievable concentrations if the clinical Cmax of the agent was known.
Compounds. The drugs and investigational agents used in this study are listed on Table 1. All of the agents used, including staurosporine (NSC755774) and gemcitabine (NSC613327), were obtained from the Developmental Therapeutics Program, NCI. FDA-approved anticancer drugs are available from the NCI at http://dtp.nci.nih.gov/branches/dscb/oncology_drugset_explanation.html. Drugs and investigational agents were >95% pure by proton nuclear magnetic resonance (NMR) and liquid chromatography/mass spectrometry (LC/MS). Stock solutions were prepared at 400x in DMSO, stored at -70 degrees C, and diluted in fresh medium prior to their use. The final concentration of DMSO in cell culture wells never exceeded 0.25% (v/v). The FDA-approved anticancer drug set is available from the Developmental Therapeutics Program at https://dtp.cancer.gov/organization/dscb/obtaining/available_plates.htm. All drugs and investigational agents were tested over a range starting from a high concentration at or near the clinical Cmax and decreasing in half-log increments. If the clinical Cmax for an agent had not been determined, the highest concentration tested was 10 microM.
Cell Lines. The patient-derived cancer cell (PDC) lines: 292921-168-R-J2-PDC, K24384-001-R-PDC, and 521955-158-R2-J5-PDC pancreatic carcinomas, 556581-035-R-J1 ovarian carcinoma, 324938-238-R-J1-PDC, 855422-203-R-J1-PDC and 883617-216-R-J1-PDC urothelial bladder carcinomas, 743489-274-T-PDC renal cell carcinoma, 138582-R-J1 Merkel cell tumor, K60290-347-R-J1 and K57222-313-R-J1-PDC glioblastomas, 653999-131-R-J2-PDC, LG0703-F948-PDC, and 349418-098-R-PDC non-small cell lung carcinomas, 885512-296-R-J2-PDC, 171881-019-R-J1-PDC breast carcinomas and 186277-243-T-J2-PDC and 233499-124-R-J2-PDC colon carcinomas were obtained from the NCI Patient-Derived Models Repository (PDMR, https://pdmr.cancer.gov). The established cell lines NCI/ADR-RES (RRID:CVCL_14520 and OVCAR-5 (RRID:CVCL_1628) ovarian carcinomas, 786-O (RRID:CVCL_1051) and A498 (RRID:CVCL_A498) renal cell carcinoma, NCI-H211 (ATCC, cat. CRL-5824; RRID:CVCL_1529), NCI-H196 (ATCC, cat. CRL-5823, RRID:CVCL_1509), SW 1271 (ATCC, cat. CRL-2177, RRID:CVCL_1716) and NCI-H1876 (ATCC, cat. CRL-5902, RRID:CVCL_1503) small cell lung carcinomas, MDA-MB-231 (RRID:CVCL_0062) and MDA-MB-468 (RRID:CVCL_0419)breast carcinomas (10-12). Pooled donor human umbilical vein endothelial cells (HUVEC, Lonza, cat. CC-2519) and human mesenchymal stem cells (hMSC, Lonza, cat. PT-2501) were purchased from Lonza (Walkersville, MD).
Cell Culture. All cells were maintained in an incubator at 37 degrees C and 5% CO2 with 95% humidity. The PDC lines were cultured according to standard operating procedures established by the NCI PDMR (https://pdmr.cancer.gov). Briefly all PDCs were thawed and cultured in Matrigel-coated flasks prepared with a working solution of 1X Ham's F-12 nutrient mix, without supplementation (Invitrogen, Waltham, MA, cat. 11765054), 100 U/mL penicillin-streptomycin (Invitrogen, cat. 15140122), and 2.5% Matrigel (Corning Inc., Corning, NY, cat. 354248) for the first three passages. […]

[1] = second compound 0.1 µM, first compound 0.0316 µM
[2] = second compound 0.1 µM, first compound 0.1 µM
[3] = second compound 0.316 µM, first compound 0.0316 µM
[4] = second compound 0.316 µM, first compound 0.1 µM
[5] = second compound 1 µM, first compound 0.0316 µM
[6] = second compound 1 µM, first compound 0.1 µM
[7] = second compound 3.16 µM, first compound 0.0316 µM
[8] = second compound 3.16 µM, first compound 0.1 µM
[9] = second compound 10 µM, first compound 0.0316 µM
[10] = second compound 10 µM, first compound 0.1 µM
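Note: spheroids exposed to agents for 7 days after 3 days growth.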

For `Cn1ncnc1C1c2n[nH]c(=O)c3cc(F)cc(c23)NC1c1ccc(F)cc1` (stereo not given) + NC1CC1c1ccc(-c2cccc(O)c2)cc1, the IC50 (second compound 0.1 µM) was > 0.1 µM, the IC50 (second compound 0.316 µM) was > 0.1 µM and the IC50 (second compound 1 µM) was > 0.1 µM. The IC50 (second compound 3.16 µM) was > 0.1 µM, the IC50 (second compound 10 µM) was > 0.1 µM and the viability, T/C (second compound 0.1 µM, first compound 0.000316 µM) was 105%. It also gave a viability, T/C (second compound 0.1 µM, first compound 0.001 µM) of 106%, a viability, T/C (second compound 0.1 µM, first compound 0.00316 µM) of 107% and a viability, T/C (second compound 0.1 µM, first compound 0.01 µM) of 104%. The viability, T/C [1] was 105%, the viability, T/C [2] was 102% and the viability, T/C (second compound 0.316 µM, first compound 0.000316 µM) was 106%. It also gave a viability, T/C (second compound 0.316 µM, first compound 0.001 µM) of 111%, a viability, T/C (second compound 0.316 µM, first compound 0.00316 µM) of 109% and a viability, T/C (second compound 0.316 µM, first compound 0.01 µM) of 108%. For the same compound, the viability, T/C [3] was 108%, the viability, T/C [4] was 102% and the viability, T/C (second compound 1 µM, first compound 0.000316 µM) was 105%. For the same compound, the viability, T/C (second compound 1 µM, first compound 0.001 µM) was 106%, the viability, T/C (second compound 1 µM, first compound 0.00316 µM) was 111% and the viability, T/C (second compound 1 µM, first compound 0.01 µM) was 108%. It also gave a viability, T/C [5] of 103%, a viability, T/C [6] of 103% and a viability, T/C (second compound 3.16 µM, first compound 0.000316 µM) of 97.2%. It also gave a viability, T/C (second compound 3.16 µM, first compound 0.001 µM) of 104%, a viability, T/C (second compound 3.16 µM, first compound 0.00316 µM) of 101% and a viability, T/C (second compound 3.16 µM, first compound 0.01 µM) of 102%. It also gave a viability, T/C [7] of 98.6%, a viability, T/C [8] of 96.8% and a viability, T/C (second compound 10 µM, first compound 0.000316 µM) of 85.3%. It also gave a viability, T/C (second compound 10 µM, first compound 0.001 µM) of 91.2%, a viability, T/C (second compound 10 µM, first compound 0.00316 µM) of 90.8% and a viability, T/C (second compound 10 µM, first compound 0.01 µM) of 83%. It also gave a viability, T/C [9] of 83.3% and a viability, T/C [10] of 81.3%.

For `CC(C)c1c(-c2ccccc2)nc2c(C#N)c[nH]n2c1=O` + NC1CC1c1ccc(-c2cccc(O)c2)cc1, the IC50 (second compound 0.1 µM) was 4.99 µM, the IC50 (second compound 0.316 µM) was 5.4 µM and the IC50 (second compound 1 µM) was 5.36 µM. The IC50 (second compound 3.16 µM) was 5.45 µM, the IC50 (second compound 10 µM) was 4.95 µM and the viability, T/C [1] was 104%. The viability, T/C [2] was 103%, the viability, T/C (second compound 0.1 µM, first compound 0.316 µM) was 93% and the viability, T/C (second compound 0.1 µM, first compound 1 µM) was 87.3%. It also gave a viability, T/C (second compound 0.1 µM, first compound 3.16 µM) of 72.1%, a viability, T/C (second compound 0.1 µM, first compound 10 µM) of 19.8% and a viability, T/C [3] of 102%. The viability, T/C [4] was 102%, the viability, T/C (second compound 0.316 µM, first compound 0.316 µM) was 95.8% and the viability, T/C (second compound 0.316 µM, first compound 1 µM) was 90.4%. It also gave a viability, T/C (second compound 0.316 µM, first compound 3.16 µM) of 75.5%, a viability, T/C (second compound 0.316 µM, first compound 10 µM) of 22.1% and a viability, T/C [5] of 108%. It also gave a viability, T/C [6] of 101%, a viability, T/C (second compound 1 µM, first compound 0.316 µM) of 93.9% and a viability, T/C (second compound 1 µM, first compound 1 µM) of 89.5%. It also gave a viability, T/C (second compound 1 µM, first compound 3.16 µM) of 75.7%, a viability, T/C (second compound 1 µM, first compound 10 µM) of 22.5% and a viability, T/C [7] of 103%. The viability, T/C [8] was 98.6%, the viability, T/C (second compound 3.16 µM, first compound 0.316 µM) was 97% and the viability, T/C (second compound 3.16 µM, first compound 1 µM) was 87.4%. The viability, T/C (second compound 3.16 µM, first compound 3.16 µM) was 77.1%, the viability, T/C (second compound 3.16 µM, first compound 10 µM) was 22% and the viability, T/C [9] was 85.7%. It also gave a viability, T/C [10] of 81.9%, a viability, T/C (second compound 10 µM, first compound 0.316 µM) of 81.4% and a viability, T/C (second compound 10 µM, first compound 1 µM) of 80.5%. It also gave a viability, T/C (second compound 10 µM, first compound 3.16 µM) of 70.6% and a viability, T/C (second compound 10 µM, first compound 10 µM) of 18.1%.
